Measurements taken from patent US9901097B2, “Agricultural and horticultural fungicidal composition” (Nippon Soda Co., Ltd., priority 2011, dated 2018).
Read-outs that look alike come from different tables or passages of the source.

Legend:
[1] = system: cucumber gray mold disease pathogens (Botrytis cinerea); assay: Control test for cucumber gray mold disease (sprayed cucumber seedlings); type: in vivo; details: for pest or weed control at 10 ppm: drug I alone 10 ppm; for Control effect: Table 10; for pest or weed control at 100 ppm: drug II alone 100 ppm; for pest or weed control at 25 ppm: drug II alone 25 ppm; for pest or weed control at 400 ppm: drug II alone 400 ppm
Protocol: The drug I and the drug II were dissolved in an organic solvent and a surfactant, and the prepared mixed emulsifiable concentrate was diluted with water to a predetermined concentration, and sprayed to cucumber seedlings that had been cultivated in unglazed pots (cultivar “Sagamihanjiro” cotyledon stage). Additionally, in Tables, the symbol A indicating the drug I represents a nitrogen-containing heterocyclic compound represented by the formula (A), the symbol B indicating the drug I represents a nitrogen-containing heterocyclic compound represented by the formula (B), and the symbol C indicating the drug I represents a nitrogen-containing heterocyclic compound represented by the formula (C). Further, the number indicating the drug II represents each of the compounds described in the numbers described above. Additionally, “-” in Tables represents that the drug was not used.
After air-drying at room temperature, a suspension of the conidia of cucumber gray mold disease pathogens (Botrytis cinerea) was inoculated by dropwise addition and held in a dark room at 20° C. with a high humidity for 3, 4, or 5 days. By investigation on the state of lesion appearance in leaves with comparison with a non-treatment case, the controlling effect was determined. The test was carried out in duplicate. In addition, the expected value of the controlling effect was calculated based on Colby's equation.
(§1) At the same time, in Comparative Example, in the case of using the drug I only and the case of using the drug II only, the test was carried out by the same method.
(§2) Additionally, the Colby's equation is E=M+N−MN/100. Here, E is the expected value of the controlling effect (%), M is the controlling effect (%) calculated from the measurement with the use of the drug I alone, and N is the controlling effect (%) calculated from the measurement with the use of the drug II alone. Additionally, in Tables, the expected values with the use of the drug alone were the same as the values calculated from the measurement, and were thus not shown.

[2] = system: Botrytis cinerea; assay: Sterilization test (growth inhibition of Botrytis cinerea in potato dextrose medium, 96-well microplate, turbidity 405 nm); type: cell-based; details: for inhibition at 0.1 ppm: drug I alone 0.1 ppm; for inhibition at 10 ppm: drug II alone 10 ppm
Protocol: The solutions thus obtained were mixed to prepare fungicidal compositions.
Conidia of Botrytis cinerea were added to and dispersed in a potato dextrose culture medium. A fungicidal composition was added thereto and mixed. This was dispensed in a 96-well microplate and cultured at 20° C. for 3 days in a dark setting. Then, the turbidity was measured at a wavelength of 405 nm in a microplate reader. From comparison with the measured value of turbidity in the case of non-treatment (without the addition of the fungicidal composition), the growth inhibition rate of Botrytis cinerea (%) was calculated. The test was carried out in duplicate. Further, the expected value of the growth inhibition was calculated based on Colby's equation.
In addition, the Colby's equation is E=M+N−MN/100. Here, E is the expected value of a growth inhibition rate (%), M is the growth inhibition rate (%) calculated from the measurement with the use of the drug I alone, and N is the growth inhibition rate (%) calculated from the measurement with the use of the drug II alone. Additionally, in Tables, the expected values with the use of the drug alone were not shown, because they were the same as the values calculated from the measurement.
At the concentrations shown in Tables 6 to 8, the drug I and the drug II were dissolved separately in dimethyl sulfoxide. The obtained solution was mixed to prepare a fungicidal composition.
Using the same methods as in Example 1 and Comparative Example 1, the sterilization test was carried out. Additionally, in Tables, the expected values with the use of the drug alone were not shown, because they were the same as the values calculated from the measurement.

[3] = system: cucumber powdery mildew disease pathogens (Sphaerotheca fuliginea); assay: Control test for cucumber powdery mildew disease (sprayed cucumber seedlings); type: in vivo; details: held 7 days after inoculation
Protocol: The drug I and the drug II were dissolved in an organic solvent and a surfactant, and the prepared mixed emulsifiable concentrate was diluted with water to a predetermined concentration, and sprayed to cucumber seedlings that had been cultivated in unglazed pots (cultivar “Sagamihanjiro”, cotyledon stage). Additionally, in Tables, the symbol A indicating the drug I represents a nitrogen-containing heterocyclic compound represented by the formula (A), the symbol B indicating the drug I represents a nitrogen-containing heterocyclic compound represented by the formula (B), and the symbol C indicating the drug I represents a nitrogen-containing heterocyclic compound represented by the formula (C). Further, in Tables, the number indicating the drug II represents each of the compounds described in the numbers described above. Additionally, “-” in Tables represents that the drug was not used.
After air-drying at room temperature, the conidia of cucumber powdery mildew disease pathogens (Sphaerotheca fuliginea) was inoculated by shaking off and held in a warm room for 7 days. By investigation on the state of lesion appearance in leaves with comparison with a non-treatment case, the controlling effect was determined. The test was carried out in duplicate. In addition, the expected value of the controlling effect was calculated based on Colby's equation.
as §1, §2

[4] = Botrytis cinerea, 72 h, read-out: Control effect (%), 3 days after inoculation
[5] = Botrytis cinerea, 96 h, read-out: Control effect (%), 4 days after inoculation
[6] = Botrytis cinerea, 120 h, read-out: Control effect (%), 5 days after inoculation
[7] = Botrytis cinerea, 120 h, read-out: Control effect, Table 10, 5 days after inoculation
[8] = Botrytis cinerea, Example 1 (Tables 1-5), read-out: Growth inhibition rate
[9] = Botrytis cinerea, Example 2 (Tables 6-8), read-out: Growth inhibition rate
[10] = Botrytis cinerea, 96 h, read-out: Control effect, Table 9, 4 days after inoculation
[11] = Botrytis cinerea, 96 h, read-out: Control effect, Table 11, 4 days after inoculation
[12] = 5 days after inoculation, drug II alone 1.6 ppm
[13] = Example 1 (Tables 1-5), drug II alone 0.02 ppm
[14] = Botrytis cinerea, 120 h, 5 days after inoculation, read-out: Control effect (%)

SMILES: CC1(C)CN=C(c2cnc3ccccc3c2)c2cccc(F)c2O1 [A]
- pest or weed control at 10 ppm [1, 4]: 52%
- pest or weed control at 10 ppm [1, 5]: 37%
- pest or weed control at 10 ppm [1, 6]: 60%
- pest or weed control at 10 ppm [1, 7]: 43%
- inhibition at 0.1 ppm [2, 8]: 19%
- inhibition at 0.1 ppm [2, 9]: 20%
- Control effect (%) ([3]; drug I alone 10 ppm): 40%

SMILES: Cc1nc2c(F)cccc2cc1Oc1cccc(F)c1C(C)(C)O [B]
- pest or weed control at 10 ppm [1, 4]: 54%
- pest or weed control at 10 ppm [1, 5]: 37%
- pest or weed control at 10 ppm [1, 10]: 50%
- pest or weed control at 10 ppm [1, 11]: 78%
- pest or weed control at 10 ppm [1, 6]: 64%
- pest or weed control at 10 ppm [1, 7]: 44%
- inhibition at 0.1 ppm [2, 8]: 19%
- inhibition at 0.1 ppm [2, 9]: 18%
- Control effect (%) ([3]; drug I alone 10 ppm): 60%

SMILES: Cc1nc2c(F)c(F)ccc2cc1Oc1cccc(F)c1C(C)(C)O [C]
- pest or weed control at 10 ppm [1, 4]: 54%
- pest or weed control at 10 ppm [1, 5]: 19%
- pest or weed control at 10 ppm [1, 10]: 51%
- pest or weed control at 10 ppm [1, 11]: 76%
- pest or weed control at 10 ppm [1, 6]: 67%
- pest or weed control at 10 ppm [1, 7]: 47%
- inhibition at 0.1 ppm [2, 8]: 19%
- inhibition at 0.1 ppm [2, 9]: 21%
- Control effect (%) ([3]; drug I alone 10 ppm): 30%

SMILES: CC(=O)O.CC(=O)O.CC(=O)O.NC(N)=NCCCCCCCCNCCCCCCCCN=C(N)N [Drug 4, Iminoctadine acetate]
- Control effect [1, 12]: 0%
- Control effect ([1]; 5 days after inoculation, drug II alone 6.3 ppm): 41%
- Growth inhibition rate [2, 13]: 27%

SMILES: CCCCCCCCCCCCc1ccc(S(=O)(=O)O)cc1.CCCCCCCCCCCCc1ccc(S(=O)(=O)O)cc1.CCCCCCCCCCCCc1ccc(S(=O)(=O)O)cc1.NC(N)=NCCCCCCCCNCCCCCCCCN=C(N)N [Drug 5, Iminoctadine albesilate]
- Control effect ([1]; 5 days after inoculation, drug II alone 0.4 ppm): 0%
- Control effect [1, 12]: 0%
- Growth inhibition rate [2, 13]: 6%

SMILES: COC(=O)NCc1cc(/C(C)=N/OCc2cccc(C)n2)ccc1Cl [Drug 29, Pyribencarb]
- pest or weed control at 0.4 ppm ([1]; Botrytis cinerea, 96 h, 4 days after inoculation, drug II alone 0.4 ppm, read-out: Control effect (%)): 0%
- pest or weed control at 1.6 ppm ([1]; Botrytis cinerea, 96 h, 4 days after inoculation, drug II alone 1.6 ppm, read-out: Control effect (%)): 0%
- pest or weed control at 6.3 ppm ([1]; Botrytis cinerea, 96 h, 4 days after inoculation, drug II alone 6.3 ppm, read-out: Control effect (%)): 37%
- inhibition at 0.02 ppm ([2]; Botrytis cinerea, Example 1 (Tables 1-5), drug II alone 0.02 ppm, read-out: Growth inhibition rate): 22%

SMILES: Cn1nnnc1/C(=N\OCc1cccc(NC(=O)OC(C)(C)C)n1)c1ccccc1 [Drug 38]
- pest or weed control at 100 ppm ([1]; Botrytis cinerea, 96 h, Table 9, 4 days after inoculation, read-out: Control effect): 0%
- inhibition at 10 ppm [2, 8]: 9%

SMILES: C/C(=N\C#N)N(C)Cc1ccc(Cl)nc1 [Drug 42, Acetamiprid]
- pest or weed control at 25 ppm ([1]; Botrytis cinerea, 96 h, 4 days after inoculation, read-out: Control effect (%)): 0%
- pest or weed control at 400 ppm [1, 14]: 0%
- inhibition at 10 ppm [2, 9]: 0%

SMILES: C[C@@H]1[C@@H](c2ccc(Cl)cc2)SC(=O)N1C(=O)NC1CCCCC1 [Drug 43, Hexythiazox]
- pest or weed control at 400 ppm [1, 11]: 2%
- pest or weed control at 100 ppm [1, 6]: 0%
- pest or weed control at 400 ppm [1, 6]: 0%
- inhibition at 10 ppm [2, 9]: 0%

SMILES: CCc1ccc(C(=O)NN(C(=O)c2cc(C)cc(C)c2)C(C)(C)C)cc1 [Drug 44, Tebufenozide]
- pest or weed control at 400 ppm ([1]; Botrytis cinerea, 96 h, Table 11, 4 days after inoculation, read-out: Control effect): 22%
- pest or weed control at 400 ppm [1, 14]: 0%
- inhibition at 10 ppm [2, 9]: 0%

SMILES: CCCCc1c(C)nc(NCC)nc1OS(=O)(=O)N(C)C [Drug 60, Bupirimate]
- pest or weed control at 25 ppm [1, 4]: 0%
- Control effect (%) ([3]; drug II alone 6.3 ppm): 10%
- Control effect (%) ([3]; drug II alone 25 ppm): 50%

SMILES: Cc1cc(C(F)(F)F)nn1CC(=O)N1CCC(c2nc(C3=NOC(c4c(F)cccc4F)C3)cs2)CC1 (centres unmarked) [Drug 61]
- pest or weed control at 6.3 ppm ([1]; Botrytis cinerea, 72 h, 3 days after inoculation, drug II alone 6.3 ppm, read-out: Control effect (%)): 0%
- pest or weed control at 100 ppm ([1]; Botrytis cinerea, 72 h, 3 days after inoculation, read-out: Control effect (%)): 0%
- Control effect (%) ([3]; drug II alone 6.3 ppm): 0%
